Source: ChEMBL document CHEMBL5247634, “Design, synthesis and anticancer evaluation of selective 2,4-disubstituted pyrimidine CDK9 inhibitors” (Eur J Med Chem, 2022)
Calls of active or inactive are those of the source. The rule behind the calls is not given here.

What was measured:
PANC-1 [1] = assay: Induction of cell cycle arrest in human PANC-1 cells assessed as accumulation at S phase at 0.1 uM incubated for 24 hrs by propidium iodide staining based flow cytometric analysis (reference value: 17.48%); assay type: functional
A549 = assay: Antiproliferative activity against human A549 cells assessed as cell growth inhibition measured after 72 hrs by MTT assay; assay type: functional, cell-based; settings: A549, 72 h
[2] = Toxicity in BALB/c nude mouse xenografted with human PANC-1 cells assessed as mortality at 5 to 20 mg/kg, ip administered for every other day for 4 weeks; assay type: organism-based; settings: in vivo, 672 h, dose 5-20 mg/kg
PANC-1 [3] = assay: Induction of apoptosis in human PANC-1 cells assessed as necrotic cells at 2.5 uM incubated for 48 hrs by Annexin-V-FITC/PI staining based flow cytometric analysis (reference value: 0.59%); assay type: functional
PANC-1 [4] = assay: Induction of cell cycle arrest in human PANC-1 cells assessed as accumulation at G1 phase at 2.5 uM incubated for 24 hrs by propidium iodide staining based flow cytometric analysis (reference value: 80.36%); assay type: functional
PANC-1 [5] = assay: Induction of apoptosis in human PANC-1 cells assessed as early apoptotic cells at 0.1 uM incubated for 48 hrs by Annexin-V-FITC/PI staining based flow cytometric analysis (reference value: 2.21%); assay type: functional
PANC-1 [6] = assay: Antitumor activity against human PANC-1 cells xenografted in BALB/c nude mouse assessed as reduction in tumor growth rate at 10 mg/kg, ip administered for every other day for 4 weeks relative to control; assay type: functional; set-up: scale not given: the % may be the effect or the level left
PANC-1 [7] = assay: Induction of apoptosis in human PANC-1 cells assessed as viable cells at 0.1 uM incubated for 48 hrs by Annexin-V-FITC/PI staining based flow cytometric analysis (reference value: 97.0%); assay type: functional; settings: read-out: Activity
PANC-1 [8] = assay: Induction of cell cycle arrest in human PANC-1 cells assessed as accumulation at G1 phase at 0.1 uM incubated for 24 hrs by propidium iodide staining based flow cytometric analysis (reference value: 80.36%); assay type: functional
CDK9/cyclin T1 = CDK9/cyclin T1 (Homo sapiens, UniProt P50750); assay: Inhibition of CDK9/cyclin T1 (unknown origin) using as PDKtide substrate incubated for 1 hr in presence of ATP by ADP-glo luminescent assay; assay type: protein-complex assay
PANC-1 [9] = assay: Antiproliferative activity against human PANC-1 cells assessed as cell growth inhibition measured after 72 hrs by MTT assay; assay type: functional, cell-based; settings: PANC-1, 72 h
PANC-1 [10] = assay: Induction of apoptosis in human PANC-1 cells assessed as viable cells at 2.5 uM incubated for 48 hrs by Annexin-V-FITC/PI staining based flow cytometric analysis (reference value: 97.0%); assay type: functional; settings: read-out: Activity
PANC-1 [11] = assay: Induction of cell cycle arrest in human PANC-1 cells assessed as accumulation at G1 phase at 0.5 uM incubated for 24 hrs by propidium iodide staining based flow cytometric analysis (reference value: 80.36%); assay type: functional
PANC-1 [12] = assay: Induction of apoptosis in human PANC-1 cells assessed as late apoptotic cells at 0.1 uM incubated for 48 hrs by Annexin-V-FITC/PI staining based flow cytometric analysis (reference value: 0.22%); assay type: functional
[13] = Toxicity in BALB/c nude mouse assessed as no obvious change in body weight at 5 to 20 mg/kg, ip administered for every other day for 4 weeks; assay type: organism-based; settings: in vivo, 672 h, dose 5-20 mg/kg
PANC-1 [14] = assay: Induction of apoptosis in human PANC-1 cells assessed as late apoptotic cells at 2.5 uM incubated for 48 hrs by Annexin-V-FITC/PI staining based flow cytometric analysis (reference value: 0.22%); assay type: functional
PANC-1 [15] = assay: Induction of apoptosis in human PANC-1 cells assessed as necrotic cells at 0.5 uM incubated for 48 hrs by Annexin-V-FITC/PI staining based flow cytometric analysis (reference value: 0.59%); assay type: functional
L02 = assay: Antiproliferative activity against human L02 cells assessed as cell growth inhibition measured after 72 hrs by MTT assay; assay type: functional, cell-based; settings: L02, 72 h
PANC-1 [16] = assay: Induction of cell cycle arrest in human PANC-1 cells assessed as accumulation at G2M phase at 2.5 uM incubated for 24 hrs by propidium iodide staining based flow cytometric analysis (reference value: 2.16%); assay type: functional
PANC-1 [17] = assay: Induction of cell cycle arrest in human PANC-1 cells assessed as accumulation at S phase at 2.5 uM incubated for 24 hrs by propidium iodide staining based flow cytometric analysis (reference value: 17.48%); assay type: functional
PANC-1 [18] = assay: Induction of cell cycle arrest in human PANC-1 cells assessed as accumulation at S phase at 0.5 uM incubated for 24 hrs by propidium iodide staining based flow cytometric analysis (reference value: 17.48%); assay type: functional
NCI-H1975 = assay: Antiproliferative activity against human NCI-H1975 cells assessed as cell growth inhibition measured after 72 hrs by MTT assay; assay type: functional, cell-based; settings: NCI-H1975, 72 h
[19] = Downregulation of RNAPII phosphorylation level in human PANC-1 cells at 2.5 uM incubated for 24 hrs by Western blot analysis; assay type: functional
PANC-1 [20] = assay: Downregulation of RNAPII phosphorylation level in human PANC-1 cells at 0.5 uM incubated for 24 hrs by Western blot analysis; assay type: functional, cell-based
A-431 = assay: Antiproliferative activity against human A-431 cells assessed as cell growth inhibition measured after 72 hrs by MTT assay; assay type: functional, cell-based; settings: A-431, 72 h
PANC-1 [21] = assay: Induction of apoptosis in human PANC-1 cells assessed as viable cells at 0.5 uM incubated for 48 hrs by Annexin-V-FITC/PI staining based flow cytometric analysis (reference value: 97.0%); assay type: functional; settings: read-out: Activity
Homo sapiens = species: Homo sapiens; assay: Selectivity index, ratio of IC50 for CDK2/cyclin A (unknown origin) to IC50 for CDK9/cyclin T1 (unknown origin)
PANC-1 [22] = assay: Induction of cell cycle arrest in human PANC-1 cells assessed as accumulation at G2M phase at 0.1 uM incubated for 24 hrs by propidium iodide staining based flow cytometric analysis (reference value: 2.16%); assay type: functional
[23] = target: Cyclin-dependent kinase 2/cyclin A (Homo sapiens, UniProt P24941); assay: Inhibition of CDK2/cyclin A (unknown origin) incubated for 1 hr in presence of ATP by ADP-glo luminescent assay; assay type: protein-complex assay
PANC-1 [24] = assay: Induction of apoptosis in human PANC-1 cells assessed as early apoptotic cells at 0.5 uM incubated for 48 hrs by Annexin-V-FITC/PI staining based flow cytometric analysis (reference value: 2.21%); assay type: functional
PANC-1 [25] = assay: Induction of apoptosis in human PANC-1 cells assessed as necrotic cells at 0.1 uM incubated for 48 hrs by Annexin-V-FITC/PI staining based flow cytometric analysis (reference value: 0.59%); assay type: functional
[26] = Toxicity in BALB/c nude mouse xenografted with human PANC-1 cells assessed as no tissue lesions and necrosis at 5 to 20 mg/kg, ip administered for every other day for 4 weeks; assay type: organism-based; settings: in vivo, 672 h, dose 5-20 mg/kg
PANC-1 [27] = assay: Induction of cell cycle arrest in human PANC-1 cells assessed as accumulation at G2M phase at 0.5 uM incubated for 24 hrs by propidium iodide staining based flow cytometric analysis (reference value: 2.16%); assay type: functional
PANC-1 [28] = assay: Induction of apoptosis in human PANC-1 cells assessed as late apoptotic cells at 0.5 uM incubated for 48 hrs by Annexin-V-FITC/PI staining based flow cytometric analysis (reference value: 0.22%); assay type: functional
HCT-116 = assay: Antiproliferative activity against human HCT-116 cells assessed as cell growth inhibition measured after 72 hrs by MTT assay; assay type: functional, cell-based; settings: HCT-116, 72 h
PANC-1 [29] = assay: Antitumor activity against human PANC-1 cells xenografted in BALB/c nude mouse assessed as reduction in tumor growth rate at 20 mg/kg, ip administered for every other day for 4 weeks relative to control; assay type: functional; set-up: scale not given: the % may be the effect or the level left
PANC-1 [30] = assay: Antitumor activity against human PANC-1 cells xenografted in BALB/c nude mouse assessed as reduction in tumor growth rate at […], ip administered for every other day for 4 weeks relative to control; assay type: functional; set-up: scale not given: the % may be the effect or the level left
PANC-1 [31] = assay: Inhibition of CDK9 expression in human PANC-1 cells incubated for 24 hrs by Western blot analysis; assay type: functional, cell-based; settings: dose 0.1-2.5 µM
PANC-1 [32] = assay: Induction of apoptosis in human PANC-1 cells assessed as early apoptotic cells at 2.5 uM incubated for 48 hrs by Annexin-V-FITC/PI staining based flow cytometric analysis (reference value: 2.21%); assay type: functional

Sequence of CDK9/cyclin T1 (O60563 whole entry): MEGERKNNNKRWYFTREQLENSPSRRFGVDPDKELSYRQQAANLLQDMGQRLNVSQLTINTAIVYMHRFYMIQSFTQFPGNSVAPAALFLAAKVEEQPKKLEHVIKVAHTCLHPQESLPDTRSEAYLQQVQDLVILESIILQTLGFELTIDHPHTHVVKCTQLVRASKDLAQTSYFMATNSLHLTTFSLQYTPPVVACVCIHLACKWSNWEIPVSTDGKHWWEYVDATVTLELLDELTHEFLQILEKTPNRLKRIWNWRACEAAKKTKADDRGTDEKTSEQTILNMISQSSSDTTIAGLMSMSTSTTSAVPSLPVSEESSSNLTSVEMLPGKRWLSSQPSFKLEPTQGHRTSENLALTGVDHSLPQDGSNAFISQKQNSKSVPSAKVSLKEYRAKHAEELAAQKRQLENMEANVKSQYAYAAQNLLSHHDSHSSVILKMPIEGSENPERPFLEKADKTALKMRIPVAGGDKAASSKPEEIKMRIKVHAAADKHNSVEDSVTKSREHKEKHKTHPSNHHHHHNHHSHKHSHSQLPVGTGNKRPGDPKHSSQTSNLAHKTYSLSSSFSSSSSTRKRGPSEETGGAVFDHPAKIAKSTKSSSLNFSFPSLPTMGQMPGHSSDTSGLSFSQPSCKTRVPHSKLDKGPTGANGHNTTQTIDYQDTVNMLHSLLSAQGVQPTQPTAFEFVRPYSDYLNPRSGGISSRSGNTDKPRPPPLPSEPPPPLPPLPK
Sequence of CDK9/cyclin T1 (P50750 whole entry): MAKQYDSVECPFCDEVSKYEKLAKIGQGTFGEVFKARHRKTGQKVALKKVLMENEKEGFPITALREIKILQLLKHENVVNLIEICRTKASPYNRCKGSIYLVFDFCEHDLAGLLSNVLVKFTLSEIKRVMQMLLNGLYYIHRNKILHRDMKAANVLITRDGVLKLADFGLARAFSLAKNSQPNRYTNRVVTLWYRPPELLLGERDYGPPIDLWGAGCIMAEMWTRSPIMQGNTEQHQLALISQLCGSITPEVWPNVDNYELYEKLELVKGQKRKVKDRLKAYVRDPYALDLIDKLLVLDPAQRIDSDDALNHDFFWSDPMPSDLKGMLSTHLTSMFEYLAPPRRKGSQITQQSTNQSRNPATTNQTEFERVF

For `CN(C)CCNC(=O)c1ccc(Nc2nccc(-c3ccc(F)cc3OCc3ccccc3)n2)cc1`, the Activity (PANC-1 [1]) was 22.92%, the IC50 (A549) was 0.66 µM and the Activity [2] was “Non-Toxic”. It also gave an Activity (PANC-1 [3]) of 4.35%, an Activity (PANC-1 [4]) of 46.01% and an Activity (PANC-1 [5]) of 23.7%. For the same molecule, the Activity (PANC-1 [6]) was 32.6%, the viability at 0.1 µM (PANC-1 [7]) was 52.4% and the Activity (PANC-1 [8]) was 55.25%. The IC50 (CDK9/cyclin T1) was 0.0104 µM, the IC50 (PANC-1 [9]) was 0.08 µM and the viability at 2.5 µM (PANC-1 [10]) was 29.8%. For the same molecule, the Activity (PANC-1 [11]) was 53.9%, the Activity (PANC-1 [12]) was 19.9% and the Activity [13] was “Non-Toxic”. It also gave an Activity (PANC-1 [14]) of 57.4%, an Activity (PANC-1 [15]) of 5.78% and an IC50 (L02) of 1.43 µM. The Activity (PANC-1 [16]) was 34.26%, the Activity (PANC-1 [17]) was 19.73% and the Activity (PANC-1 [18]) was 20.25%. For the same molecule, the IC50 (NCI-H1975) was 0.43 µM, the inhibition at 2.5 µM [19] was 100% and the Activity (PANC-1 [20]) was “Active”. The IC50 (A-431) was 0.1 µM, the viability at 0.5 µM (PANC-1 [21]) was 40.1% and the Selectivity Index (Homo sapiens) was 84.3. The Activity (PANC-1 [22]) was 21.83%, the IC50 [23] was 0.876 µM and the Activity (PANC-1 [24]) was 8.41%. The Activity (PANC-1 [25]) was 4.07%, the Activity [26] was “Non-Toxic” and the Activity (PANC-1 [27]) was 25.85%. For the same molecule, the Activity (PANC-1 [28]) was 45.7%, the IC50 (HCT-116) was 0.09 µM and the Activity (PANC-1 [29]) was 54.2%. For the same molecule, the Activity (PANC-1 [30]) was 6.2%, the inhibition (PANC-1 [31]) was “Dose-Dependent Effect” and the Activity (PANC-1 [32]) was 8.44%.
